Measurements published in PubChem BioAssay AID1549 (Sanford-Burnham Center for Chemical Genomics, 2009).
Activity calls are given as the source filed them. No rule for the calls is given here.

Biological target: Influenza A virus M2 proton channel (A/TW/4845/1999 H1N1)
Assay: NMR binding screen, influenza A virus M2 proton channel, Kd (AID 1549)
Conditions: M2 protein

| SMILES | Kd |
| --- | --- |
| C[C@@H]1CC[C@]2(C(=O)O)CC[C@]3(C)C(=CCC4[C@@]5(C)CC[C@H](O)C(C)(C)C5CC[C@]43C)C2[C@H]1C (some centres not stated) | > 4 mM (inactive) |
| Cc1cc(O)c2c(c1)C(=O)c1cccc(O)c1C2=O | > 4 mM (inactive) |
| CS(=O)(=O)c1ccccc1C(=O)Nc1nccs1 | > 4 mM (inactive) |
| O=C1CCC(C(=O)NCc2ccc(Cl)cc2)N1 (configuration not stated) | > 4 mM (inactive) |
| CCOC(=O)c1c(C)cc(OC)cc1O | > 4 mM (inactive) |
| Cc1cc(NC(=O)c2ccc3c(c2)OCO3)no1 | > 4 mM (inactive) |
| O=C(NS(=O)(=O)c1ccccc1)c1ccccc1F | > 4 mM (inactive) |
| CC(C)(C)Cc1nc(-c2ccccn2)no1 | > 4 mM (inactive) |
| C[C@@H]1CC[C@@]2(OC1)OC1C(O)C3C4CC[C@H]5C[C@H](O[C@@H]6O[C@H](CO)[C@H](O[C@@H]7O[C@H](CO)[C@@H](O)[C@H](O[C@@H]8OC[C@@H](O)[C@H](O)[C@H]8O)[C@H]7O[C@@H]7O[C@H](CO)[C@H](O)[C@H](O[C@@H]8O[C@H](CO)[C@@H](O)[C@H](O)[C@H]8O)[C@H]7O)[C@H](O)[C@H]6O)[C@H](O)C[C@]5(C)C4CC[C@]3(C)C1[C@@H]2C (some centres not stated) | > 4 mM (inactive) |
| CCOC(=O)C1CCN(c2ccc(C#N)cc2)CC1 | > 4 mM (inactive) |
| O=C1CSC(=O)N1CN1CCOCC1 | > 4 mM (inactive) |
| CCOC(=O)C1CCN(Cc2ccccc2)CC1 | > 4 mM (inactive) |
| NC(=O)Cn1nnc(-c2ccc(C(F)(F)F)cc2)n1 | > 4 mM (inactive) |
| O=C(O)c1ccc(-c2cnco2)cc1 | > 4 mM (inactive) |
| Cn1c(CO)nc2cc(N)ccc21 | > 4 mM (inactive) |
| O=c1cnnc(N2CCCCC2)[nH]1 | > 4 mM (inactive) |
| Cc1sc2nc(NCCO)[nH]c(=O)c2c1C | > 4 mM (inactive) |
| Cc1c(/C=N\n2cnnc2)c2ccccc2n1C | > 4 mM (inactive) |
| Cc1cc(NC(=O)c2c(F)c(F)c(F)c(F)c2F)no1 | > 4 mM (inactive) |
| Nc1cc(=O)[nH]c(SCC(=O)NCc2ccccc2)n1 | > 4 mM (inactive) |
| O=C(O)c1ccc(NCc2cccnc2)cc1 | > 4 mM (inactive) |

| SMILES | Kd |
| --- | --- |
| O=C(O)c1cccc2c1OCCO2 | > 4 mM (inactive) |
| CCCNC(=O)c1cnc2n(c1=O)CCS2 | > 4 mM (inactive) |
| O=C(NCCO)NC(=S)c1ccccc1 | > 4 mM (inactive) |
| CCN(CC)c1nc2n(c(=O)n1)CCO2 | > 4 mM (inactive) |
| O=c1ccnc(Nc2ccccc2O)[nH]1 | > 4 mM (inactive) |
| Cn1cnc2c(Cl)ncnc21 | > 4 mM (inactive) |
| CC(C)C(C)/C=C/C(C)[C@H]1CCC2C3=CCC4CC(=O)CC[C@]4(C)C3CC[C@@]21C (some centres not stated) | > 4 mM (inactive) |
| Nc1cc(N)nc(SCc2cccnc2)n1 | > 4 mM (inactive) |
| COc1cc(O)c(C(=O)c2ccccc2)cc1O | > 4 mM (inactive) |
| N#Cc1cnn(-c2ccc(Cl)cc2)c1N | > 4 mM (inactive) |
| CC(C)[C@@H]1CC[C@@H](C)C[C@H]1O | > 4 mM (inactive) |
| CCc1sc(C(=O)NC)cc1Br | > 4 mM (inactive) |
| COc1ccc(-c2nnc(-c3ccc(N)cc3)o2)cc1 | > 4 mM (inactive) |
| Cc1nnc2ccc(N3CCCC3)nn12 | > 4 mM (inactive) |
| O=C(Nc1ccc(N2CCCC2=O)cc1)c1cccc(F)c1 | > 4 mM (inactive) |
| Nc1nc(-c2ccccc2)cc(=O)[nH]1 | > 4 mM (inactive) |
| C[C@@H]1C(=O)O[C@H]2[C@H]1CC[C@@]1(C)C=CC(=O)[C@@]3(C)O[C@@]213 | > 4 mM (inactive) |
| O=C(NCCO)c1ccccc1I | > 4 mM (inactive) |
| CCOC(=O)CNc1ncnc2c1nnn2CC | > 4 mM (inactive) |
| NC(=O)Cc1nc2ccccc2[nH]1 | > 4 mM (inactive) |
| c1ccc(C[N+]23CCN(CC2)CC3)cc1 | > 4 mM (inactive) |

| SMILES | Kd |
| --- | --- |
| O=C(O)C1CCCN1Cc1c[nH]c2ccccc12 (configuration not stated) | > 4 mM (inactive) |
| OC1CCN(c2nccc(C(F)(F)F)n2)CC1 | > 4 mM (inactive) |
| COc1ccc2c(c1)c1n[nH]c(=S)nc1n2C | > 4 mM (inactive) |
| Cn1c(=O)cc(O)c2ccccc21 | > 4 mM (inactive) |
| CN1CCn2c1nc(N1CCOCC1)nc2=O | > 4 mM (inactive) |
| CN1CCc2c(sc(N)c2C#N)C1 | > 4 mM (inactive) |
| O=C1CCCc2c1nc(-c1ccccc1)n2O | > 4 mM (inactive) |
| O=C(C1CCCCC1)N1CCN(c2ccccc2F)CC1 | > 4 mM (inactive) |
| COCc1cc(=O)oc2cc(N)ccc12 | > 4 mM (inactive) |
| CSc1nnc2c(n1)OC=Nc1ccccc1-2 | > 4 mM (inactive) |
| O=C1CNC(=O)/C1=C/c1ccc(O)cc1 | > 4 mM (inactive) |
| Cc1c(C)c2c(c(C)c1O)CCC(C)(CCCC(C)CCCC(C)CCCC(C)C)O2 (configuration not stated) | > 4 mM (inactive) |
| COC(=O)N1CCN(c2ccc(C(C)=O)cc2)CC1 | > 4 mM (inactive) |
| Cc1cc(S(=O)(=O)N2CCOCC2)ccc1F | > 4 mM (inactive) |
| O=C(c1ccco1)N1CCNCC1 | > 4 mM (inactive) |
| CS(=O)(=O)N1CCN(c2ccccc2F)CC1 | > 4 mM (inactive) |
| Nc1cc(C(=O)N2CCCC2)cc(C(=O)N2CCCC2)c1 | > 4 mM (inactive) |
| Cc1cc(C(=O)Nc2nnc(C(F)(F)F)s2)no1 | > 4 mM (inactive) |
| COc1cc2cc[n+]3cc4c(OC)c(OC)ccc4cc3c2cc1OC | > 4 mM (inactive) |
| Cc1ccc2[nH]c3nc(=S)[nH]nc3c2c1 | > 4 mM (inactive) |
| CC1NC(C(=O)O)Cc2c1[nH]c1ccccc21 (configuration not stated) | > 4 mM (inactive) |

| SMILES | Kd |
| --- | --- |
| Cc1nn(C)c2sc(C(=O)O)cc12 | > 4 mM (inactive) |
| COC(=O)NNc1ncnc(N)c1[N+](=O)[O-] | > 4 mM (inactive) |
| CC(C)CCCC1(C)C=Cc2c(O)c3c(c(CCC(C)C)c2O1)OC12C(CC4CC1C(C)(C)OC2(CCC(C)C(=O)O)C4O)C3=O (configuration not stated) | > 4 mM (inactive) |
| COc1ccc(N2C(=N)C(C)(C)NC2=O)cc1 | > 4 mM (inactive) |
| Cc1nc(-c2cccc(C(=O)O)c2)cs1 | > 4 mM (inactive) |
| S=C(c1ccc(N2CCOCC2)cc1)N1CCOCC1 | > 4 mM (inactive) |
| O=C(Nc1nncs1)Oc1ccccc1 | > 4 mM (inactive) |
| O=C1CCC(=O)N1c1ccc(F)cc1 | > 4 mM (inactive) |
| C=CCSc1[nH]c(=O)cc(C)c1C(N)=O | > 4 mM (inactive) |
| O=C(Nc1ccc(Cl)cc1)N1CCCC1 | > 4 mM (inactive) |
| c1ccc(SCc2nc(-c3ccncc3)no2)cc1 | > 4 mM (inactive) |
| CC1Cc2nc(SCC(N)=O)n(C)c(=O)c2S1 (configuration not stated) | > 4 mM (inactive) |
| CCn1cnc2scc(-c3ccccc3)c2c1=O | > 4 mM (inactive) |
| CCN1CCn2c1nc(N1CCOCC1)nc2=O | > 4 mM (inactive) |
| CC1(C)Oc2ccc3ccc(=O)oc3c2CC1O (configuration not stated) | > 4 mM (inactive) |
| COc1ccc(N2C(=O)CCC2=O)c(OC)c1 | > 4 mM (inactive) |
| COc1cc(C)nc(N(CCO)CCO)n1 | > 4 mM (inactive) |
| COc1ccc(-c2cc(=O)c3c(O)cc(O[C@@H]4O[C@H](CO[C@H]5O[C@H](C)[C@@H](O)[C@H](O)[C@@H]5O)[C@@H](O)[C@H](O)[C@H]4O)cc3o2)cc1O | > 4 mM (inactive) |
| Nc1cccc2nsnc12 | > 4 mM (inactive) |
